Results on twelve compounds are retold here after ChEMBL document CHEMBL1144331, “Uric acid may inhibit glucose-induced insulin secretion via binding to an essential arginine residue in rat pancreatic beta-cells” (2005).

Experiment [1] concerns Rattus norvegicus. The experiment in a line: Insulin release in rat pancreatic beta-cells after 15 minutes of administration at 1 mM was measured. It counts as functional.
In experiment [2] the test system is Rattus norvegicus. The experiment in a line: Insulin release in rat pancreatic beta-cells after 15 minutes of administration of the NH4-salt of compound at 1 mM was measured. It counts as functional.
Experiment [3] deals with Rattus norvegicus. Nature of the experiment: Insulin release in rat pancreatic beta-cells after 15 minutes of administration of the K-salt of compound at 1 mM was measured. The class given is functional.
The test system of experiment [4] is Rattus norvegicus. The experiment in a line: Insulin release in rat pancreatic beta-cells after 15 minutes of administration of the Na-salt of compound at 1 mM was measured. It counts as functional.
Experiment [5] is filed under the species Rattus norvegicus. Nature of the experiment: Acid dissociation constant was determined.
The subject of experiment [6] is Rattus norvegicus. Nature of the experiment: Insulin release in rat pancreatic beta-cells (PBS-rinsing of the islets) after 15 minutes of administration at 1 mM was measured. The class given is functional.

As for `O=C1NC(=O)C(O)(O)C(=O)N1`, in the experiment with Rattus norvegicus [1], the Insulin release came out at 0.39 ng/islet/h.

Compound `O=c1[nH]c(=O)c2nn[nH]c2[nH]1` gave an Insulin release in the experiment with Rattus norvegicus [1] of 7.92 ng/islet/h.

For the compound `NC(N)N.O=C1NC(O)Nc2[nH]c(O)nc21` (stereo not drawn), the Insulin release with Rattus norvegicus [1] is given as 8.39 ng/islet/h.

As for `CN1C(=O)c2nc(O)[nH]c2NC1O.NC(N)N` (stereo not drawn), the Insulin release in the experiment on Rattus norvegicus [1] was 8.75 ng/islet/h.

Compound `Cn1c(O)nc2c1C(=O)NC(O)N2.NC(N)N` (stereo not drawn) yielded an Insulin release in the experiment on Rattus norvegicus [1] of 8.55 ng/islet/h.

In turn, `Cn1c(O)nc2[nH]c(=O)[nH]c(=O)c21` gave an Insulin release with Rattus norvegicus [1] of 8.04 ng/islet/h.

On to `Cn1c(=O)[nH]c2[nH]c(=O)[nH]c2c1=O`, for which the Insulin release with Rattus norvegicus [1] is given as 7.92 ng/islet/h.

`Cn1c(=O)c2[nH]c(=O)[nH]c2n(C)c1=O` registered an Insulin release in the experiment on Rattus norvegicus [1] of 8.48 ng/islet/h.

In turn, `O=c1[nH]cnc2nc[nH]c12` [HYPOXANTHINE] came in with an Insulin release with Rattus norvegicus [1] of 8.44 ng/islet/h.

Compound `O=C(O)c1nc(=O)[nH]c(=O)[nH]1` [OTERACIL] returned an Insulin release in the experiment on Rattus norvegicus [1] of 8.26 ng/islet/h.

As for `Oc1nc(O)c2nc(O)[nH]c2n1` [URIC ACID], the Insulin release was determined as 1.66 ng/islet/h in the experiment with Rattus norvegicus [2], 1.65 ng/islet/h in the experiment with Rattus norvegicus [1], 1.68 ng/islet/h in the experiment with Rattus norvegicus [3] and 1.7 ng/islet/h in the experiment with Rattus norvegicus [4]. In the experiment filed under Rattus norvegicus [5], this compound registered a pKa of 5.4.

Consider `O=c1[nH]c(=O)c2nc[nH]c2[nH]1` [XANTHINE], for which the Insulin release with Rattus norvegicus [6] stood at 7.72 ng/islet/h; in the experiment on Rattus norvegicus [1], 3.5 ng/islet/h. This compound also displayed a pKa in the experiment listed under Rattus norvegicus [5] of 7.7.
